The source of these data is US20190015385A1, “VITAMIN E PHOSPHATE OR ACETATE FOR USE IN THE TREATMENT AND PREVENTION OF BIOFILM INFECTIONS” (priority 2016, published 2019).

The test system of one data set is P. acnes. Kind of data set: MIC and MBC, broth microdilution (Example 3). The data set is classed as cell-based. The protocol: MIC, defined as the lowest concentration capable of inhibiting bacterial growth, was determined using the broth microdilution method according to EUCAST guidelines (http://www.eucast.org/clinical_breakpoints/). In short, a suspension in Brain Heart Infusion Broth ([…], France) was prepared for each bacterial strain, with an optical density of 0.5 McFarland (1.5×10^8 CFU/ml). The P. acnes broth was supplemented with 5% defibrinated sheep blood ([…] Abruzzi, Italy). After a concentration of 10^5 UFC/ml was obtained using appropriate dilutions, each suspension was inoculated in a 96-well microtitre plate containing a two-fold serial dilution of vitamin E acetate (VitE-Ac) and vitamin E phosphate. The controls were performed by inoculating bacterial suspensions in BHI alone. […] After incubation at adequate conditions, MBC was read as the lowest concentration capable of killing 99.9% of the initial inoculum.

Data set [1] concerns P. aeruginosa. Put plainly: Anti-adhesion activity on coated titanium disks, CFU count (Example 3). The data set is classed as cell-based, Pseudomonas aeruginosa. The procedure: (§1) Sterile disks of sandblasted titanium with a diameter of 25 mm and a thickness of 5 mm (Adler Ortho, Cormano, Italy) were used as the substrate for the formation of biofilms. The disks were coated with sub-inhibitory concentrations of vitamin E acetate (5 mg/cm^2) or vitamin E phosphate (5 mg/cm^2). The concentrations were selected based on the MIC results. Uncoated disks were used as negative controls. The anti-adhesion activity of vitamin E was assessed against a representative strain for each species. An overnight bacteria culture was resuspended in Brain Heart Infusion Broth (BHI; Biomérieux) at a density of 1.0×10^7 CFU/ml for each strain, and 400 microliters of microbial suspension were inoculated on coated and uncoated disks. The test was performed in triplicate for each strain. After 30, 60 and 120 minutes of incubation, the disks were washed twice with a sterile saline solution to eliminate non-adherent bacteria. The disks were then immersed in 5 ml of a 0.1 w/v % dithiothreitol solution (DTT, Sigma-Aldrich, Milan, Italy) and mechanically stirred for 15 minutes at room temperature. Suitable dilutions of the fluids obtained were inoculated on Tryptic Soy Agar (TSA, Merck) and incubated at 37° C. in an aerobic atmosphere for 24 hours for the CFU count.

The subject of data set [2] is S. aureus. Described as above. The data set is classed as cell-based, Staphylococcus aureus. The protocol: as §1
Data set [3] relates to S. aureus. Put plainly: Anti-biofilm activity on coated titanium disks, CFU count (Example 3). The conditions noted are these: 48 hours, 5 mg/cm^2 coating. Type of data set: cell-based, Staphylococcus aureus. The procedure:
Coated and uncoated titanium disks were prepared as described above and utilized as the substrate for the formation of biofilms. Subsequently, an overnight bacteria culture was resuspended in Brain Heart Infusion Broth (BHI; Biomérieux) at a density of 1.5×10^8 CFU/ml for each strain, and 200 microliters of microbial suspension were inoculated in sterile polystyrene plates with 6 wells containing coated and uncoated disks and 4.8 ml of BHI. The plates were incubated at 37° C. in an aerobic atmosphere for 24 and 48 hours. The test was performed in triplicate for each strain.
At the end of the biofilm incubation time, the disks were treated as described above and the detached cells of the biofilm were inoculated on Tryptic Soy Agar and incubated at 37° C. in an aerobic atmosphere for 24 hours for the CFU count.

Data set [4] deals with P. aeruginosa. Put plainly: MIC and MBC, broth microdilution (Example 3). The data set is classed as cell-based, Pseudomonas aeruginosa. The source says:
(§2) This study used clinically relevant strains isolated from patients with prosthetic joint infections at the Microbiology Laboratory of the IRCCS Galeazzi Orthopaedic institute (Italy). In particular, the following were selected: strains of methicillin-resistant Staphylococcus epidermidis, of methicillin-resistant Staphylococcus aureus and of Pseudomonas aeruginosa. These strains were identified beforehand by means of biochemical assays (VITEK® 2 Compact, bioMérieux, Marcy l'Etoile, France) and stored at −80° C. prior to the analysis. Before beginning the study, all strains were screened to assess their ability to produce biofilms, according to the spectrophotometric assay described by Christensen et al. (J Clin Microbiol 1985; 22: 996-1006).
(§3) The bacteriostatic and bactericidal activity of vitamin E acetate and vitamin E phosphate against the above-mentioned bacterial strains was assessed by measuring the minimum inhibitory concentration (MIC) and the minimum bactericidal concentration (MBC). MIC, defined as the lowest concentration capable of inhibiting bacterial growth, was determined using the broth microdilution method according to EUCAST guidelines (http://www.eucast.org/clinical_breakpoints/).
(§4) In short, a suspension in Brain Heart Infusion Broth (BHI; Biomérieux, Marci l'Etoile, France) was prepared for each bacterial strain, with an optical density of 0.5 McFarland (1.5×10^8 CFU/ml). The P. acnes broth was supplemented with 5% defibrinated sheep blood (Liofilchem, Roseto degli Abruzzi, Italy). After a concentration of 10^5 UFC/ml was obtained using appropriate dilutions, each suspension was inoculated in a 96-well microtitre plate containing a two-fold serial dilution of vitamin E acetate (VitE-Ac) and vitamin E phosphate. The controls were performed by inoculating bacterial suspensions in BHI alone. […] After incubation at adequate conditions, MBC was read as the lowest concentration capable of killing 99.9% of the initial inoculum.

Data set [5] relates to S. epidermidis. Put plainly: Anti-adhesion activity on coated titanium disks, CFU count (Example 3). The data set is classed as cell-based, Staphylococcus epidermidis. The procedure:
as §1

For data set [6], the system named is S. epidermidis. Kind of data set: MIC and MBC, broth microdilution (Example 3). The data set is classed as cell-based, Staphylococcus epidermidis.
Source text: as §2, §3, §4
(In general: In broth dilution the organism is exposed to a series of concentrations in liquid medium.)

The test system of data set [7] is S. aureus. Kind of data set: MIC and MBC, broth microdilution (Example 3). The data set is classed as cell-based, Staphylococcus aureus.
Source text: as §2, §3, §4

A further data set deals with rats or mice. The conditions noted are these: rat or mouse; cited from earlier work.
For data set [8], the system named is S. aureus, S. epidermidis, E. coli, P. aeruginosa and C. albicans (all the strains tested). Kind of data set: Antimicrobial activity, MIC by broth microdilution (Example 1). The data set is classed as cell-based. The conditions noted are these: mean over all strains tested; VitE diluted in hyaluronic acid; read after 24 hours at 37° C. The procedure:
The microbial strains utilized in this study were isolated from clinical samples collected from bone and soft tissue infections. In particular, strains of S. aureus, S. epidermidis, E. coli, P. aeruginosa and C. albicans were utilized. They were identified beforehand by means of biochemical assays and examined to assess their ability to produce biofilms, according to the spectrometric assay described by Christensen et al. (1985). The microorganisms were stored at −80° C. prior to the analysis. Prior to use, the strains were thawed and cultivated in an appropriate culture medium at 37° C. for 24 h. Antimicrobial activity was assessed by determining the minimum inhibitory concentration (MIC). MIC, defined as the lowest concentration of an antimicrobial substance that inhibits the visible growth of a microorganism, was determined using the broth microdilution method, in accordance with the guidelines of the European Committee on Antimicrobial Susceptibility Testing (EUCAST). […] VitE was diluted in hyaluronic acid (HA) at various concentrations, for which the growth checks were performed by inoculating the microbial suspension in BHI+HA. […] The assay was conducted in duplicate and repeated twice.

Setting [9] is: 5 mg/cm^2 coating, 30, 60 and 120 minutes.
Setting [10] is: 5 mg/cm^2 coating, range over 30, 60 and 120 minutes.

`Cc1c(C)c2c(c(C)c1OP(=O)([O-])[O-])CC[C@@](C)(CCC[C@H](C)CCC[C@H](C)CCCC(C)C)O2.[Na+].[Na+]` [Vitamin E phosphate, α-tocopherol phosphate disodium salt]: the “bactericidal at the concentrations tested (in words)” value in the data set with P. acnes was “bactericidal”; in the data set on P. aeruginosa [4] (P. aeruginosa), “not against P. aeruginosa”; in the data set on S. epidermidis [6] (S. epidermidis) it was “bactericidal”; in the data set with S. aureus [7] (S. aureus), “bactericidal”. The MIC range with P. acnes (48 hours, broth with 5% defibrinated sheep blood) lay within 1.56 to 6.25 mg/mL; against P. aeruginosa [4] (P. aeruginosa strains, 24 hours) it was 100 to 200 mg/mL; against S. epidermidis [6] (S. epidermidis strains, 24 hours), 3.13 to 100 mg/mL; with S. aureus [7] (S. aureus strains, 24 hours), 25 to 100 mg/mL. The MBC range in the data set on P. acnes (kills 99.9% of the initial inoculum) was 31.25 to 50 mg/mL; against P. aeruginosa [4] (P. aeruginosa strains, kills 99.9% of the initial inoculum), over 200 mg/mL; against S. epidermidis [6] (S. epidermidis strains, kills 99.9% of the initial inoculum), 25 to 100 mg/mL; in the data set on S. aureus [7] (S. aureus strains, kills 99.9% of the initial inoculum), 25 to 200 mg/mL. Further, the “decrease in adhesion (in words)” value in the data set on P. aeruginosa [1] (setting [9]) is recorded as “significant decrease for all the strains tested, with the exception of the last time period tested for P. aeruginosa”; in the data set with S. aureus [2] (setting [9]) it was “significant decrease”; with S. epidermidis [5] (setting [9]) it was “significant decrease”. The “inhibition of adhesion with respect to the control” value with P. aeruginosa [1] (setting [10]) was 7-65%; in the data set on S. aureus [2] (setting [10]), 60-78%; in the data set on S. epidermidis [5] (setting [10]), 84-95%. Moreover, the “biofilm reduction with respect to the controls (in words)” value with S. aureus [3] is “significantly inhibited”.
For vitamin E, the LD50 in the data set with rats or mice is listed as 4000 mg of vitamin E/kg. Also, the “mean MIC value” in [8] is recorded as 2.5%.
